Results reported in patent US20080153872A1, “Bis-(Coumarin) Compounds With Anti-Inflammatory Activity” (priority 2005, published 2008).

Tests used:
TxA2 receptor = target: T1, TxA2 receptor (Homo sapiens, UniProt P21731); assay: Human thromboxane A2, TxA2, assay (SQ-29548 competition); assay type: binding; conditions: 10 μM concentration; HEK-293
T1 construct: expressed in transfected cells; host or cells: HEK-293
T1 sequence (P21731 1-343): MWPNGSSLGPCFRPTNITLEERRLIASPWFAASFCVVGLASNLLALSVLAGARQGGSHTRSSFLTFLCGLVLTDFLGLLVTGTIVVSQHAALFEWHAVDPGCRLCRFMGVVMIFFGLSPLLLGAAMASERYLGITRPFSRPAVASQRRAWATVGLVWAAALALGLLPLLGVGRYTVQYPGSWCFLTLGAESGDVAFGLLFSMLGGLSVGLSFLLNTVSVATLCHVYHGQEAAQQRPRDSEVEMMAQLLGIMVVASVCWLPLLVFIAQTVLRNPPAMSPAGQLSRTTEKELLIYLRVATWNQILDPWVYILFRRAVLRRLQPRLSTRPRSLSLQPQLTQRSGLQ
Protocol: (§1) All compounds were dissolved in dimethyl sulfoxide (DMSO). Final concentration of the DMSO in all tests was 1% (v/v). Inhibition in all tests is considered preferred if it exceeds 50% at 10 μM concentration (or less).
TxA2 receptor is expressed in HEK-293 cell line. Compounds and radiolabelled competitor SQ-29548 are incubated for 30 minutes at 25° C. Level of bound SQ-29548 is measured by scintillation counting, and competition is calculated from the total amount of the bound SQ-29548. […] is an unstable lipid mediator involved in blood clotting, and immune processes.

CysLT1 receptor = target: T2, CysLT1 receptor (Homo sapiens, UniProt Q9Y271); assay: Human cysteinyl leukotriene receptor 1 (CysLT1) radioligand binding assay; conditions: 10 μM concentration; CHO-K1 cells
T2 construct: expressed in transfected cells; host or cells: CHO-K1
T2 sequence (Q9Y271 1-337): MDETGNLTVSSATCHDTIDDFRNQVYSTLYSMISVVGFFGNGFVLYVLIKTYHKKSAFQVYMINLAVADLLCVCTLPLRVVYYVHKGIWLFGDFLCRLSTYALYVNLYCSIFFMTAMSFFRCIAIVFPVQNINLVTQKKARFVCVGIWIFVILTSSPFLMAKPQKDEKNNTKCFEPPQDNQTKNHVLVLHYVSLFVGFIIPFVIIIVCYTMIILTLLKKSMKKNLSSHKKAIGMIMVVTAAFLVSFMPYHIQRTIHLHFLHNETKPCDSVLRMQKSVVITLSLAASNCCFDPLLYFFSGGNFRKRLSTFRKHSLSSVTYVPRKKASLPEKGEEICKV
Protocol: as §1
CysLT1 receptor is involved in immune diseases such as asthma, and has clinical significance as a point of intervention in asthma therapy. CysLT1 receptor is expressed in CHO-K1 cells (Chinese hamster ovary cells K1 clone). This is a competitive radioligand binding assay where substances compete with [^3H]-labeled Leulcotirene D4 (LTD4). Radioactive substance is measured with scintillation counting. Percentage of inhibition is calculated from the total radioactivity of the sample.

human PDE4 = assay: Human PDE4 assay (U937); assay type: biochemical; conditions: 10 μM concentration
Protocol: as §1
(§2) PDE4 assay. PDE is implicated in diseases such as chronic obstructive pulmonary disease and neutrophilia. Human monocytic leukemia cell line U937 is pre-incubated at 25° C. in Tris-HCl buffer containing magnesium ions for 15 minutes. 1.01 μM tritium labeled cyclic adenosine monophosphate (cAMP) is added as substrate, followed by incubation at 25° C. for 20 minutes. Percentage of inhibition is calculated by comparing the adenosine levels in supernatant which is formed from cAMP in treated versus control cells.

Balb/C mice = assay: Ovalbumin induced pulmonary eosinophilia in mice; assay type: in vivo, mouse; conditions: OVA sensitized and challenged mice; i.n., i.p. or per os
Protocol: Male Balb/C mice with a body weight of 20-25 g are randomly divided into groups, and sensitized by an i.p. injection of ovalbumin (OVA, Sigma) on day zero and day fourteen. On the twentieth day, the mice are subjected to a challenge test by i.n. (intranasal) application of OVA (positive control or test groups) or PBS (negative control). The compounds are administered daily i.n., i.p. or per os in different doses starting 2 days before the challenge and up to the completion of the test. Compounds are administered as suspension either in PBS, methyl cellulose or carboxymethyl cellulose with addition od DMSO (up to 5% of the total volume). 48 hours after i.n. application of OVA, the animals are then anaesthetized to obtain bronchoalveolar lavage fluid (BALF), which is used to determine total protein concentration as well as concentrations of cytokines such as IL-1β and TNF-α, absolute number of cells, and percentage of eosinophils in BALF. Bronchoalveolar lavage (BAL) is performed by infusing 1 mL of PBS divided into 3 separate volumes (0.4, 0.3 and 0.3 ml) through trachea into the lungs. The fluid is immediately withdrawn and the cell suspension stored into previously prepared 1.5 mL Eppendorf tube. Bronchoalveolar lavage fluid (BALF) is then centrifuged at […] for 5 min (4° C.). Cells are resuspended in 700 μL of PBS. To prepare cytospins, 320 μL of suspension is centrifuged at 250 rpm for 10 min (Cytospin-3, Shandon Instruments). Cells are stained with Dif-Quik (Dade Behring) to determine percentage of eosinophils by counting of at least 100 cells. The remaining resuspended cells are used for total cell count in BALF analysis (Sysmex SF 3000). Finally, lungs are sampled and stored into 10% formalin for pathohistological evaluation of eosinophil and mononuclear infiltrate. Accumulation of eosinophils and mononuclear cells in peribronchial (PB) and perivascular (PV) lung tissue areas and in alveolar spaces is monitored.
Results can be expressed as (I) decrease of absolute cell number per mL in BALF, (II) decrease of number of eosinophils per mL in BALF, (III) reduction of relative number (percentage) of eosinophils in BALF, (IV) reduction of cytokine concentrations in BALF, as well as (V) suppression of accumulation of eosinophils and mononuclear cells in peribronchial (PB) and perivascular (PV) lung tissue areas and in alveolar spaces by pathohistological scoring of treated animals compared to positive control (OVA stimulated, but untreated animals).
Fluticasone and beclomethasone are used as standard anti-inflammatory substances, and compared for ability to inhibit eosinophilia to the negative and positive controls.

human PDE3 = target: T3, human PDE3 (Homo sapiens, UniProt Q14432); assay: Human PDE3 assay (platelets); assay type: biochemical; conditions: 10 μM concentration
T3 construct: Isolated human platelets are pre-incubated at 25° C; from tissue; host or cells: human platelets
T3 sequence (Q14432 whole entry): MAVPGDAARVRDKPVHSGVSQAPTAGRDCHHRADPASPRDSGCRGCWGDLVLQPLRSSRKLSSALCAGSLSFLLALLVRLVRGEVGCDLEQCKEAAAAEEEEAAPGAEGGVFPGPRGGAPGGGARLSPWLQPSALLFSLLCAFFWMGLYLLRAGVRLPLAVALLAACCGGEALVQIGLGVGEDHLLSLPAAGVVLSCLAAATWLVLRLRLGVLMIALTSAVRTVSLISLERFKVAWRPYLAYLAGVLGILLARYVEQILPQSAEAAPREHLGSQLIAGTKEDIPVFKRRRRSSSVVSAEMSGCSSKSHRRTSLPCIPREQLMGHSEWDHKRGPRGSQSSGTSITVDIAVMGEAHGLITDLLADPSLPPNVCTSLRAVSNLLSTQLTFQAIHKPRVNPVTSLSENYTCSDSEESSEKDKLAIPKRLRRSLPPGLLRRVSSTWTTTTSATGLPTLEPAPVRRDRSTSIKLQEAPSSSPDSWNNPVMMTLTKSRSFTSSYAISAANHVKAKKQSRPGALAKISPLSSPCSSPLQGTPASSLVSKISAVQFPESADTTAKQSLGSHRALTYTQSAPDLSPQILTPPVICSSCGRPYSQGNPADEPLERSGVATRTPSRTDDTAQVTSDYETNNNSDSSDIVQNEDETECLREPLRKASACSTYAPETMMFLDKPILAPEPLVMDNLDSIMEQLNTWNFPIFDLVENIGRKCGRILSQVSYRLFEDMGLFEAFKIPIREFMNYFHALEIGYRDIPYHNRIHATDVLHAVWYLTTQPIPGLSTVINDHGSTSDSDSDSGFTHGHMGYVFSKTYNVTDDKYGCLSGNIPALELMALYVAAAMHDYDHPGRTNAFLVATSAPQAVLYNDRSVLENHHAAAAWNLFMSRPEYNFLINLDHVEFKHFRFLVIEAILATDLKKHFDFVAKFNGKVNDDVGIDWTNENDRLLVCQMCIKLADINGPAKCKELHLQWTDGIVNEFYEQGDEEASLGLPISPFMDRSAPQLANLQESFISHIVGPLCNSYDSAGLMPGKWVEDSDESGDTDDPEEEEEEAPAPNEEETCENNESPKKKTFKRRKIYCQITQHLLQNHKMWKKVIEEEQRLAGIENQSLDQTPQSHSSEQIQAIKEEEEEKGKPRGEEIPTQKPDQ
Protocol: as §1
as §2, with “PDE3” for “PDE4”, “Isolated human platelets are” for “PDE is implicated in diseases such as chronic obstructive pulmonary disease and neutrophilia. Human monocytic leukemia cell line U937 is”

CC(=O)C(c1c(O)c2cccc(C(C)C)c2oc1=O)c1c(O)c2cccc(C(C)C)c2oc1=O [Example 19]
TxA2 receptor, competition with SQ-29548 (TxA2 receptor): significantly relevant activity | CysLT1 receptor, competition with [3H]-LTD4 (CysLT1 receptor): significantly relevant activity | inhibition of human PDE4 activity (human PDE4): significantly inhibited | reduction of percentage of eosinophils and/or their total number in BALF and/or by histological scoring (Balb/C mice): statistically significant reduction | inhibition of human PDE3 activity (human PDE3): significantly inhibited

CC(C)c1cccc2c(O)c(C(C(=O)OCCO)c3c(O)c4cccc(C(C)C)c4oc3=O)c(=O)oc12 [Example 50]
TxA2 receptor, competition with SQ-29548 (TxA2 receptor): significantly relevant activity | CysLT1 receptor, competition with [3H]-LTD4 (CysLT1 receptor): significantly relevant activity | inhibition of human PDE4 activity (human PDE4): significantly inhibited | reduction of percentage of eosinophils and/or their total number in BALF and/or by histological scoring (Balb/C mice): statistically significant reduction | inhibition of human PDE3 activity (human PDE3): significantly inhibited

CC(C)c1cccc2c(O)c(C(CO)c3c(O)c4cccc(C(C)C)c4oc3=O)c(=O)oc12 [Example 30]
TxA2 receptor, competition with SQ-29548 (TxA2 receptor): significantly relevant activity | CysLT1 receptor, competition with [3H]-LTD4 (CysLT1 receptor): significantly relevant activity | inhibition of human PDE4 activity (human PDE4): significantly inhibited | reduction of percentage of eosinophils and/or their total number in BALF and/or by histological scoring (Balb/C mice): statistically significant reduction | inhibition of human PDE3 activity (human PDE3): significantly inhibited
